Results: PubChem BioAssay AID977626 (Broad Institute, 2014)
Records with an inconclusive call do not appear. Active and inactive are the calls of the source. No rule for the calls is given here.

How the values were obtained:
[1] = system: E. coli WT-RFP vs G2058 humanized-GFP mixed culture, fluorescence; test: growth inhibition of G2058-humanized E. coli versus wild-type, dose response, G2058 mutant GFP vs wild-type RFP, cherry-pick, OD600 (AID 977626)
[2] = as above; settings: E. coli WT-RFP vs G2058 humanized-GFP mixed culture, fluorescence; at 50 µM (top of the series)
[3] = E. coli WT-RFP vs G2058 humanized-GFP mixed culture, measured here: total growth OD600
[4] = measured here: G2058 humanized mutant strain GFP

SMILES	AC50 [1, 3]	activity change, negative = inhibition [2]	AC50 [1, 4]	AC50 [1]
COc1ccc(Cn2c(-c3ccc(Cl)cc3)c[n+]3ccccc23)cc1	45.6 µM	-3.75 (inactive)		
O=C(O)c1cc([N+](=O)[O-])ccc1NCc1ccccc1	14.4 µM	23.8 (inactive)	38.9 µM	
COc1ccc(NC(=O)c2ccc(-c3ccc([N+](=O)[O-])cc3)o2)cc1	5.22 µM		> 100 µM	2.63 µM
COc1ccc(Nc2oc(-c3ccco3)nc2S(=O)(=O)c2ccc(F)cc2)cc1				3.67 µM
COC(=O)c1c(NC(=O)CCC(=O)O)sc(Cc2ccccc2)c1C	3.27 µM		3.03 µM	9.22 µM
CCN(CC)CCn1c2ccccc2c2nc3ccc([N+](=O)[O-])cc3cc21	4.58 µM	26.7 (inactive)	5.66 µM	
Cc1ccc(C)c(NC(=O)CSc2nc3nc(-c4cccs4)cc(C(F)(F)F)c3c(=O)[nH]2)c1	8.26 µM	-7.41 (inactive)	9.81 µM	
